Reference: US12599597B2, “Substituted N-benzhydrylacetamide inhibitors of jumanji domain histone demethylases for the treatment of cancer” (University of Kentucky Research Foundation, priority 2020, dated 2026)

Tests used:
JMJD1A (KDM3A) = biological target: T1, JMJD1A (KDM3A) (Homo sapiens, UniProt Q9Y4C1); assay: Histone demethylase assay / KDM3A enzymatic activity in vitro; type: biochemical
T1 sequence (Q9Y4C1 1-1321): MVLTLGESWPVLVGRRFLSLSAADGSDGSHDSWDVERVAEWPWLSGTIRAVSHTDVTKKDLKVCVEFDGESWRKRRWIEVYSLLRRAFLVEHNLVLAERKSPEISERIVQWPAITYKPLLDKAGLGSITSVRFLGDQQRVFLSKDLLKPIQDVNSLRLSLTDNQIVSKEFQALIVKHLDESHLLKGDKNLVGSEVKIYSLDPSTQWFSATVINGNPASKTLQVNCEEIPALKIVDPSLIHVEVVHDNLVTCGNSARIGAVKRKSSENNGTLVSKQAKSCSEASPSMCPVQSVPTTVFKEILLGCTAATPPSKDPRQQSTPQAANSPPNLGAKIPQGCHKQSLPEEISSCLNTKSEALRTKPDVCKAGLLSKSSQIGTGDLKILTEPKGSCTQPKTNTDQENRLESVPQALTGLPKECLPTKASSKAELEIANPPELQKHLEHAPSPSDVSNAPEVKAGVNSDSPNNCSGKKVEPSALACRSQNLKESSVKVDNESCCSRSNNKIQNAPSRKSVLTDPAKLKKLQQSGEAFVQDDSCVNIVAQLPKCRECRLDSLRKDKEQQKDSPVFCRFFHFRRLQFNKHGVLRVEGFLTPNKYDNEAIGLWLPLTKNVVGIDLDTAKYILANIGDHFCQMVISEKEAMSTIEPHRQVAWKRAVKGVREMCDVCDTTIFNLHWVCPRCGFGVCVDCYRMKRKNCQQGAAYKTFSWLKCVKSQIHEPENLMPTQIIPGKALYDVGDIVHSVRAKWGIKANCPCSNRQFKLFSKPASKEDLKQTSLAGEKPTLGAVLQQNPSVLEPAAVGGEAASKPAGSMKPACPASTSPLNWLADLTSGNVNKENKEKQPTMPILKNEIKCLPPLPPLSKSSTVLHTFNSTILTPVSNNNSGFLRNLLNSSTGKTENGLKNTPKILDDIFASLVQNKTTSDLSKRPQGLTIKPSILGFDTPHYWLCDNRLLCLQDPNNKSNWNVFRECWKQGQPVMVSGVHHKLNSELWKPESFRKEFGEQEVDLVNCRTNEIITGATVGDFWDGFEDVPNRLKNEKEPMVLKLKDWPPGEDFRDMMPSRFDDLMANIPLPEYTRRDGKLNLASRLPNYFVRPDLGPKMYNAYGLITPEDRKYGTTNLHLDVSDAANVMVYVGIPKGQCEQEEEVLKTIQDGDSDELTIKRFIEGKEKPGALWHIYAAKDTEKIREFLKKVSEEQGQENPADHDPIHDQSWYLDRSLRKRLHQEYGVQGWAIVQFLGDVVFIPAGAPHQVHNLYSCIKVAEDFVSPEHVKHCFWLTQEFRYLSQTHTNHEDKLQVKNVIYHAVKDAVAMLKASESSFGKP
Text: Histone Demethylase Assay
To further examine the effects of 58B1 on histone demethylase, we screened a panel of purified histone demethylases was screened.
Identification of KDM3A as a target of CBA-1. KDM3A regulated H3K9Me^2 and underwent significant upregulation in CRC. To test if CBA-1 targeted KDM3A, a biotinylated analog CBA-B2 (FIG. 7A) was synthesized. […] Knocking-down KDM3A by shRNA inhibited cell proliferation (FIG. 7D) and Wnt target gene expression in LS174T CRC cells (FIG. 7E).
Repurposing drugs as CBA-1 analogs and KDM3 inhibitors. CBA-1 is a specific and potent KDM3A inhibitor. As backup candidates, two approved drugs were identified as CBA-1 analogs and KDM3A inhibitors. Based on the docking study (FIGS. 8A-B), the N and OH groups (red color in FIG. 12A) are critical in binding the Mn^2+ in KDM3A. […] A virtual screening was performed and several antibiotics that have similar structures were identified. Two of these antibiotics, clioquinol and nitroxoline (FIG. 12B), indeed inhibited the enzymatic activities of KDM3 (FIGS. 12C and D). These two drugs were tested in LS174T tumor xenograft model in SCID mice. […] Nitroxoline has been used in Europe for over 50 years as an antibiotic. It has anticancer effects, but the mechanism remains unclear.

Wnt signaling = assay: TOPFlash (Wnt) reporter assay in stable HEK293T cell line; type: cell-based
Text: Wnt signaling is a key target for multiple human cancers, including but not limited to colon cancer, liver cancer, and lung cancer. To identify novel Wnt regulators by high throughput screening, a stable HEK293T cell line containing the TOPFlash reporter was established. Since β-catenin is often activated by mutations in the Wnt pathway, it is important to inhibit Wnt signaling downstream of β-catenin activity. Therefore, the screen was specifically designed to identify Wnt inhibitors that target events downstream of β-catenin. The Wnt signaling was activated by treating cells with lithium chloride to inhibit GSK3 and to stabilize β-catenin, mimicking the constitutively active Wnt signaling in cancer cells. Through this screen, a family of novel Wnt inhibitors that inhibited Wnt signaling at a 0.5-10 μM concentrations (Table 1) was identified.
After 6 h, the cells were treated with 25 mM LiCl to activate Wnt signaling. The inhibition ratio of each compound was determined (Table 1).
For the SAR studies, 58B1 (VMS-7-133) was re-synthesized. Additionally, SD70, a commercial KDM4 inhibitor, was both purchased and re-synthesized (VMS-7-175). […] VMS-7-195 is a biotinylated analog of 58B1. […] Specific KDM inhibitors may be used to target specific KDMs, such as KDM3A, which is highly expressed in many human cancers.
Identification of a CBA-1 as a novel Wnt inhibitor. The present inventors routinely use TOPFlash reporter assay for Wnt inhibitor screening. To mimic the constitutively active Wnt signaling found in CRC cells, Wnt signaling was activated by inhibiting GSK3 and stabilizing β-catenin. From screening in house small-molecule libraries, CBA-1 (FIG. 4) was identified that inhibited Wnt signaling in TOPFlash reporter assay. To validate the screening results, CBA-1 was tested in CRC cells.

[1] = tested on: CRC organoids from Apc^f/+/Kras^LSL-G12D/Villin-Cre mice; assay: Mouse CRC organoids formation; type: cell-based; conditions: 3 μM; p<0.01
Procedure: FIGS. 11A-B show an image and a graph illustrating mouse CRC organoids. (A) CRC organoids from Apc^f/+/Kras^LsL-G12D/Villin-Cre mice. (B) CBA-1 (3 μM) inhibited CRC organoids (*p<0.01; n=3).
CRC organoids models. To analyze the effects of CBA-1 in CRC, a colon cancer organoid model was established from Apc^f/+/Kras^LSL-G12D/Villin-Cre mice (FIG. 11A).

Compound: CCCC(=O)NC(c1ccc(N(CC)CC)cc1)c1cc(Cl)c2cccnc2c1O (stereo not drawn) [58B1]
- inhibition at 10 µM (JMJD1A (KDM3A); 58B1, 10 μM): 99%
- KDM3A activity in vitro, dose-response study (JMJD1A (KDM3A); at low micromolar levels): inhibited
- inhibition (Wnt signaling; Homo sapiens, HEK-293T, Table 1, HEK293T TOPFlash, 25 mM LiCl after 6 h): 95%
- inhibition at 1 µM (Wnt signaling; Homo sapiens, HEK-293T, Table 3, Wnt reporter assay at 1 μM, read-out: Percent inhibition at 1 μM): 90.9%
- Wnt signaling in TOPFlash reporter assay (Wnt signaling; screening of in house libraries): inhibited
- mouse CRC organoids formation [1]: significantly inhibited
